Tests used:
Experiment in all cases: relative viability (nuclei count vs DMSO), 5 days (fraction); higher = more cells survive
Adavosertib + Lapatinib = compound: C=CCn1c(=O)c2cnc(Nc3ccc(N4CCN(C)CC4)cc3)nc2n1-c1cccc(C(C)(C)O)n1 [Adavosertib] + CS(=O)(=O)CCNCc1ccc(-c2ccc3ncnc(Nc4ccc(OCc5cccc(F)c5)c(Cl)c4)c3c2)o1 [Lapatinib] (partner 2 µM)
Method in brief: (§1)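 Lung cancer cell lines in 1536-well plates got either a single drug or a fixed anchor-drug dose together with five library-drug doses (not always all listed) in √10 steps, by pin tool, on the day after seeding. Nuclei were counted after 5 days, and relative viability is the treated-to-vehicle ratio of nuclei counts. Values are medians of duplicate plates.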

Adavosertib + Pictilisib = compound: C=CCn1c(=O)c2cnc(Nc3ccc(N4CCN(C)CC4)cc3)nc2n1-c1cccc(C(C)(C)O)n1 [Adavosertib] + CS(=O)(=O)N1CCN(Cc2cc3nc(-c4cccc5[nH]ncc45)nc(N4CCOCC4)c3s2)CC1 [Pictilisib] (partner 1 µM)
Method in brief: as §1

Nelarabine + Lapatinib = compound: COc1nc(N)nc2c1ncn2[C@@H]1O[C@H](CO)[C@@H](O)[C@@H]1O [Nelarabine] + CS(=O)(=O)CCNCc1ccc(-c2ccc3ncnc(Nc4ccc(OCc5cccc(F)c5)c(Cl)c4)c3c2)o1 [Lapatinib] (partner 2 µM)
Method in brief: as §1

Nelarabine + Alpelisib = compound: COc1nc(N)nc2c1ncn2[C@@H]1O[C@H](CO)[C@@H](O)[C@@H]1O [Nelarabine] + Cc1nc(NC(=O)N2CCC[C@H]2C(N)=O)sc1-c1ccnc(C(C)(C)C(F)(F)F)c1 [Alpelisib] (partner 2 µM)
Method in brief: as §1

Cell Line | relative viability (Adavosertib + Lapatinib; first compound 0.01 µM) | relative viability (Adavosertib + Lapatinib; first compound 0.03162 µM) | relative viability (Adavosertib + Lapatinib; first compound 0.1 µM) | relative viability (Adavosertib + Lapatinib; first compound 0.3162 µM) | relative viability (Adavosertib + Pictilisib; first compound 0.01 µM) | relative viability (Adavosertib + Pictilisib; first compound 0.03162 µM) | relative viability (Adavosertib + Pictilisib; first compound 0.1 µM) | relative viability (Adavosertib + Pictilisib; first compound 0.3162 µM) | relative viability (Nelarabine + Lapatinib; first compound 0.01 µM) | relative viability (Nelarabine + Lapatinib; first compound 0.03162 µM) | relative viability (Nelarabine + Lapatinib; first compound 0.1 µM) | relative viability (Nelarabine + Lapatinib; first compound 0.3162 µM) | relative viability (Nelarabine + Lapatinib; first compound 1 µM) | relative viability (Nelarabine + Alpelisib; first compound 0.01 µM) | relative viability (Nelarabine + Alpelisib; first compound 0.03162 µM) | relative viability (Nelarabine + Alpelisib; first compound 0.1 µM) | relative viability (Nelarabine + Alpelisib; first compound 0.3162 µM) | relative viability (Nelarabine + Alpelisib; first compound 1 µM)
NCI-H1975 | 0.878 | 0.805 | 0.895 | 0.667 | 0.267 | 0.279 | 0.261 | 0.19 | 1.27 | 0.958 | 0.92 | 1.11 | 0.982 | 0.785 | 0.489 | 0.73 | 0.773 | 0.764
RERF-LC-KJ | 0.915 | 0.826 | 0.89 | 0.825 | 0.568 | 0.636 | 0.519 | 0.358 | 0.912 | 0.99 | 1.01 | 0.88 | 0.876 | 0.944 | 0.889 | 0.909 | 0.861 | 1.09
NCI-H2228 | 1.39 | 1.13 | 1.46 | 0.494 | 0.695 | 0.45 | 0.448 | 0.305 | 1.1 | 1.1 | – | 0.974 | 0.977 | 0.882 | 0.595 | – | 0.815 | 0.676
HCC-15 | 0.902 | 0.87 | 0.934 | 0.955 | 0.724 | 0.713 | 0.727 | 0.934 | 0.987 | 0.798 | 0.928 | 0.883 | 0.9 | 1.09 | 0.822 | 0.847 | 0.983 | 0.934
EKVX | 0.216 | 0.233 | 0.201 | 0.225 | 0.44 | 0.448 | 0.433 | 0.437 | 0.2 | 0.155 | 0.168 | 0.204 | 0.21 | 0.958 | 0.772 | 0.717 | 1.04 | 0.832
NCI-H2347 | 0.889 | 0.912 | 1.13 | 1.03 | 0.567 | 0.61 | 0.297 | 0.762 | 0.977 | 0.904 | 0.94 | 0.954 | 0.992 | 1.01 | 1.13 | 1.14 | 1.04 | 1.14
NCI-H1944 | 0.765 | 0.709 | 0.908 | 0.783 | 0.387 | 0.333 | 0.333 | 0.326 | 0.895 | 0.782 | 0.841 | 0.799 | 0.845 | 0.817 | 0.78 | 0.828 | 0.814 | 0.79
NCI-H1395 | 0.824 | 1.31 | 1.03 | 0.78 | 0.545 | 0.546 | 0.596 | 0.635 | 0.959 | 1.1 | 1.23 | 0.971 | 1.5 | 1.15 | 0.987 | 1 | 1.34 | 0.99
SK-MES-1 | 0.45 | 0.43 | 0.476 | 0.389 | 0.307 | 0.343 | 0.321 | 0.213 | 0.432 | 0.544 | 0.456 | 0.563 | 0.555 | 1.01 | 1 | 0.937 | 0.964 | 0.948
NCI-H1792 | 0.824 | 0.931 | 0.919 | 0.937 | 0.294 | 0.224 | 0.233 | 0.272 | 0.913 | – | 1.45 | 1.03 | 0.967 | 0.908 | – | 0.83 | 0.688 | 0.828
NCI-H596 | 0.995 | 1.12 | 1.01 | 1 | 0.338 | 0.379 | 0.419 | 0.348 | 1.15 | 1.13 | 1.27 | 0.892 | 1.07 | 0.532 | 0.504 | 0.525 | 0.577 | 0.504
NCI-H3122 | 1.01 | 0.924 | 1.07 | 1.07 | 0.584 | 0.606 | 0.72 | 0.613 | 1.08 | 0.891 | – | 1.08 | 1.01 | 0.898 | 0.569 | – | 0.881 | 0.761
LXF-289 | 0.905 | 0.894 | 0.906 | 0.922 | 0.786 | 0.746 | 0.782 | 0.788 | 0.97 | 0.883 | 0.884 | 0.941 | 0.903 | 1.19 | 1.05 | 1.01 | 1.11 | 1.05
NCI-H2126 | 0.736 | 0.781 | 0.764 | 0.829 | 0.531 | 0.526 | 0.506 | 0.521 | 0.91 | 0.763 | 0.72 | 0.754 | 0.797 | 0.875 | 0.81 | 0.779 | 0.744 | 0.774
HOP-62 | 1.14 | 1.23 | 1.04 | 1.11 | 0.771 | 0.891 | 0.762 | 0.961 | 1.35 | 1.08 | 1.18 | 1.11 | 1 | 1.12 | 1.03 | 0.942 | 0.926 | 1.07
NCI-H647 | 1.23 | 1.08 | 1.08 | 0.727 | 0.453 | 0.471 | 0.405 | 0.318 | 1.37 | 0.807 | 1.11 | 1.34 | 1.14 | 1.2 | 0.705 | 1.12 | 1.56 | 1.19
NCI-H2170 | 0.273 | 0.27 | 0.277 | 0.287 | 0.345 | 0.308 | 0.264 | 0.31 | 0.284 | 0.232 | 0.262 | 0.293 | 0.28 | 0.944 | 0.748 | 0.81 | 0.882 | 0.937
NCI-H1793 | 0.61 | 0.714 | 0.721 | 0.647 | 0.385 | 0.295 | 0.318 | 0.248 | 0.827 | 0.945 | 0.83 | 0.933 | 0.727 | 0.748 | 0.736 | 0.625 | 0.68 | 0.693

— the supplement of paper PMC10307832
